This note sets out measurements from patent US11579149B2, “Hippo pathway bioluminescent biosensor” (Queen's University at Kingston, priority 2017, dated 2023).

Assay [1] deals with LATS kinase activity. The assay is described as follows: LATS-BS validation in transfected HEK293 cells (luciferase assay / western blot). The assay is classed as cell-based, human. The conditions noted are these: HEK293 co-transfected with LATS-BS and MST2, 10 μM LPA for 1 hour before collection. As for the experimental part: In a validation study, LATS-BS was transfected alone or together with LATS2 or/and MST2 into HEK293 cells and biosensor activity or NLuc-YAP15-S127 phosphorylation status were determined 48 hours after transfection by luciferase assay or western blot, respectively. As depicted in FIG. 2C, HEK293 cells transfected with LATS-BS alone had low luciferase activity and this was correlated with a low degree of Nluc-YAP15-S127 phosphorylation. Co-transfection of LATS-BS with MST2 was associated with increases in both Nluc-YAP-S127 phosphorylation and luciferase activity, and this effect was suppressed with lysophosphatidic acid (LPA), an inhibitor of the Hippo pathway. For lysophosphatidic acid (LPA) treatment, cells were stimulated with 10 μM LPA for 1 hour before collection (n=3). LATS-BS co-expression with both MST2 and LATS2 was correlated with further increases in Nluc-YAP15-S127 phosphorylation and luciferase activity. Collectively, these observations are consistent with a model where MST2 activates LATS2, which phosphorylates Nluc-YAP15-S127, leading to binding with Cluc-14-3-3 and reconstitution of active luciferase.
A general note: A western blot detects proteins with antibodies after separation by electrophoresis.

Assay [2] deals with LATS kinase activity. The assay is described as follows: LATS-BS under stimuli regulating Hippo signaling (in vitro luciferase assay and live cell luciferase imaging). The format is cell-based, human. The conditions noted are these: cell lysates (luciferase assay) and live cells (BLI). The method, then:
For live cell imaging, LATS-BS or a pGL3-control vector were transfected into HEK293, MDA-MB-231 or A549 cells. After 48 hours, cells were trypsinized and collected in a black, clear bottomed, 96-well plate. 150 μg/mL D-luciferin (D-Luciferin, Potassium Salt, GoldBio #LUCK-250) in media was added to each well 5-10 min before imaging. Exposure time for images was approximately 3 min/plate. Imaging was performed using a LightTools Research system (Synopsys, Ltd., Mountain View, Calif., USA) dark box and a Hamamatsu ORCA-Flash4.0 V2 digital CMOS camera over the course of 20 minutes to establish optimal peak luciferase activity. The bioluminescence of the regions of interest was analyzed for total emission flux using Image-Pro® Plus software (Media Cybernetics, Inc., Rockville, Md., USA).
Experiments were conducted to further validate the LATS intermolecular biosensor and explore potential applications for its use. The LATS-BS responded to numerous signals reported to modulate Hippo pathway activity, including cell confluency, drugs activating Hippo signaling (Forskolin, PI3K inhibitor, PDK inhibitor, F-IBMX, and 2-deoxy-glucose) and Hippo signaling inhibitors (LPA, EGF, Insulin, S1P, and TPA). The LATS-BS is activated by LATS in various cell lines (e.g., A549, MDA-MB231).
The following compound treatments were used for in vitro luciferase assay and live cells imaging: RAF inhibitor (GW5054, Cayman Chemical, Ann Arbor, Mich., USA), ATR inhibitor (CGK733, Cayman Chemical), PI3K inhibitor 1 (GDC0941, Cayman Chemical), PI3K inhibitor 2 (LY294002, Cayman Chemical), PDK inhibitor (GSK2334470, Cayman Chemical)—10 μM for 4 hours; EGF-100 ng/mL for 1 hour; insulin (Sigma #91077C)—10 μg/ml for 1 hour, F/IBMX (Forskolin, Cayman Chemical/IBMX, Cayman Chemical)—0.1-10 μM for Forskolin and 100 μM for IBMX for 1 hour; L-α-lysophosphatidic acid (LPA) (Sigma #L7260)—0.1-10 μM for 1 hour, sphingosine1-phosphophate (S1P)—1 μM for 1 hour; 12-O-tetradecanoylphorbol-13-acetate (TPA) (#41745; Cell Signaling Technology, Inc., Danvers, Mass., USA)—5 nM for 1 hour; 2-deoxy glucose (#D8375, Sigma-Aldrich Canada Co., Oakville, Ontario, Canada)—25 mM for 1 hour.

Turning to L-α-lysophosphatidic acid [LPA], the “Nluc-YAP-S127 phosphorylation (western blot)” value in the assay on LATS kinase activity [1] is listed as “suppressed”. Besides, the LATS-BS luciferase activity result with LATS kinase activity [1] (n=3) is reported as “suppressed”. In addition, the “LATS-BS response to signals modulating Hippo pathway activity” value (“LATS-BS response” below) with LATS kinase activity [2] is “responded”.

`CNc1nc(-c2ccc3c(N)n[nH]c3c2)cc(N2C[C@@H](C(=O)NC3CCCCC3)CC[C@H]2C)n1` [PDK inhibitor]: in the assay with LATS kinase activity [2], the “LATS-BS response” value was “responded”.

Turning to “Insulin: Hippo signaling inhibitor (Sigma #91077C)”, the “LATS-BS response” value in the assay on LATS kinase activity [2] was “responded”.

Consider `CCCCCCCCCCCCC/C=C/[C@@H](O)[C@@H](N)COP(=O)(O)O` [S1P, sphingosine1-phosphophate], for which, in the assay on LATS kinase activity [2], the “LATS-BS response” value is on record as “responded”.

Regarding `O=CC[C@@H](O)[C@H](O)[C@H](O)CO` [2-deoxy-glucose, 2-deoxy glucose], in the assay with LATS kinase activity [2], the “LATS-BS response” value is recorded as “responded”.

Turning to EGF: Hippo signaling inhibitor, the “LATS-BS response” value in the assay with LATS kinase activity [2] is reported as “responded”.

Regarding `CCCCCCCCCCCCCC(=O)O[C@@H]1[C@@H](C)[C@@]2(O)[C@@H](C=C(CO)C[C@]3(O)C(=O)C(C)=C[C@@H]23)[C@@H]2C(C)(C)[C@]12OC(C)=O` [TPA, 12-O-tetradecanoylphorbol-13-acetate], in the assay with LATS kinase activity [2], the “LATS-BS response” value is “responded”.
